Test results as given in paper PMC12412324, “Design, synthesis, and evaluation of novel pinane-based thiazolidione derivatives with anti-glioblastoma activity” (Journal of Enzyme Inhibition and Medicinal Chemistry, 2025).
“And” between values parts separate entries of the source, which are not always exact repeats. Equal values may be shown once.

Key:
LO2 = assay: CCK-8 cytotoxicity, normal human cell line LO2; assay type: cell-based; conditions: L02, mean ± SD of three independent experiments
CDK2 [1] = target: T1, CDK2 (Homo sapiens, UniProt P24941); assay: Drug affinity responsive target stability (DARTS) assay; assay type: binding; conditions: U251 lysate, C5 50 and 100 μM, pronase 30 min, versus DMSO
T1 construct: endogenous in cells; host or cells: U251 cells (lysate)
Experimental: U251 cells were plated in 10 cm dishes. After overnight, the cells were washed by precooled PBS, and lysed by NP-40 lysis buffer for 30 min. Next, lysates were centrifuged at 13000 rpm for 15 min at 4 °C, and protein concentration was determined using a BCA protein assay kit (Solarbio, PC0020). The supernatants were divided into four 50 μL aliquots and incubated with DMSO or compound C5 (50 and100μM) for 30 min at room temperature. Then, the 5 μL of Pronase (The method of preparing the stock solution is 1 μg of Pronase in 200 μg of lysate, the effect concentration which is diluted by ultrapure water to 200X/400X/600X), and the reaction was stopped by 5× loading buffer. Protein samples were boiled and analysed by using Western blot.

T98G = assay: CCK-8 cell viability assay, T98G; assay type: cell-based; conditions: Homo sapiens, T98G, 72 h, CCK-8, 72 h, mean ± SD of three independent experiments
Experimental: (§1) The U87MG cell line (catalogue iCell-h224) and U251MG cell line (catalogue iCell-h219) were purchased from iCell Bioscience Inc (Shanghai) cell bank. T98G cell line was obtained from Yining Zhang’s group. All cells were cultured in DMEM supplemented with 10% (v/v) FBS and penicillin-streptomycin in a humidified incubator at 37 °C under 5% CO2. The different compounds were dissolved in DMSO at the concentration of 10 mM and diluted in serum-free medium. The GBM cells were seeded into 96-well microplates at the density of 6000 cells/well and incubated for 24 h. Fresh media supplemented with different concentrations of the compounds were added, and the cells were cultured for 72 h. The CCK-8 reagent (TargetMol, C0005) was added to each well and the cells were incubated for 4 h at 37 °C. […] the absorbance was measured at […] using a microplate reader (Genios Tecan). An untreated control group was included and its viability was set as 100%. IC50 value of the two probes was calculated using GraphPad Prism 5.0.

[2] = tested on: GBM cell lines (U87, T98G, and U251); assay: CCK-8 anti-proliferation, three GBM cell lines taken together; assay type: cell-based; conditions: read-out: IC50 values against all three GBM cell lines
Experimental: as §1

U251 cells [3] = assay: Annexin V-FITC/PI apoptosis flow cytometry; assay type: cell-based; conditions: U251, C5 10 μM, 48 h
Experimental: (§2) U251 (1 × 10^5 cells/well) in logarithmic growth phase were transferred into 6-well microplates and cultured for 12 h. […] Annexin V-FITC/PI staining kit (Yeasen, Shanghai, China) was used to detect cell apoptosis. The cell cycle distribution was analysed by staining with a cell cycle analysis kit. Intracellular ROS levels were also detected using a ROS assay kit (Yeasen, Shanghai, China). All assays were performed as per the manufacturer’s instructions, and the stained cells were analysed by flow cytometry (Beckman Coulter, Miami, FL) to quantify apoptosis rates, cell cycle distribution, and ROS levels as appropriate.

CDK2 [4] = target: T1, CDK2; assay: Cellular thermal shift assay (CETSA); assay type: binding; conditions: U251, C5 50 and 100 µM, 40–70 °C, compared to control group
Experimental: U251 cells in logarithmic growth were harvested and lysed with protease inhibitors and phosphorylase inhibitors, followed by ultrasonic disruption and ice extraction for 1 h. After that, the lysate was divided into three parts evenly and incubated with DMSO, 50 µM of C5, and 100 µM of C5 for 1 h at room temperature. Subsequently, samples were heated in the PCR machine for 10 min in indicated temperature gradients (40–70 °C), respectively. Finally, samples were centrifuged at 14,000 × g for 30 min at 4 °C to remove aggregates, and the resulting supernatant was analysed with western blotting.

U87 = assay: CCK-8 cell viability assay, U87; assay type: cell-based; conditions: Homo sapiens, U-87 MG, 72 h, CCK-8, 72 h, mean ± SD of three independent experiments
Experimental: as §1

U251 = assay: CCK-8 cell viability assay, U251; assay type: cell-based; conditions: Homo sapiens, U-251, 72 h, CCK-8, 72 h, mean ± SD of three independent experiments
Experimental: as §1

U251 cells [5] = assay: Cell cycle distribution by flow cytometry; assay type: cell-based; conditions: U251, C5 2.5, 5, 10 μM, 48 h
Experimental: as §2

U251 cells [6] = assay: Intracellular ROS by flow cytometry (DCFH-DA); assay type: cell-based; conditions: U251, 5 μM C5, DCFH-DA
Experimental: U251 (1 × 10^5 cells/well) in logarithmic growth phase were transferred into 6-well microplates and cultured for 12 h. Therefore, U251 cells were treated with C5 (0, 2.5, 5, and 10 μM) for 24 h. Annexin V-FITC/PI staining kit (Yeasen, Shanghai, China) was used to detect cell apoptosis. The cell cycle distribution was analysed by staining with a cell cycle analysis kit. Intracellular ROS levels were also detected using a ROS assay kit (Yeasen, Shanghai, China). All assays were performed as per the manufacturer’s instructions, and the stained cells were analysed by flow cytometry (Beckman Coulter, Miami, FL) to quantify apoptosis rates, cell cycle distribution, and ROS levels as appropriate.

[7] = tested on: apoptosis-related and autophagy-related proteins in U251 cells; assay: Western blotting of apoptosis-related and autophagy-related proteins; assay type: cell-based; conditions: immunoblot
Experimental: The protein content in the lysates was measured using a BCA protein assay kit, and 20 μg protein per sample was separated by SDS-PAGE and transferred to PVDF membranes (Merck Millipore, Burlington, MA, USA). After blocking with 5% skim milk in Tris buffered saline-Tween (TBS-T) at room temperature for 2h, the blots were incubated overnight with the following primary antibodies at 4 °C: mouse anti-GAPDH (ab8245, 1:10000), rabbit anti-Bax (ab32503, 1:5000), anti-Bcl-2 (ab32124, 1:1000), anti-caspase 3 (ab32351, 1:5000), anti-cleaved caspase 3 (ab32042, 1:500), anti-cleaved PARP-1 (ab32561, 1:1000), anti-LC3B (ab192890, 1:2000), anti-p62 (ab109012, 1:10000), anti-PARP-1 (ab32138, 1:10000). Following three washes with TBS-T, the membranes were incubated with corresponding horseradish peroxidase-conjugated secondary antibodies (1:10000) at room temperature for 90 min, and washed thrice with TBS-T. The bands were visualised using the Minichem@610 Chemiluminescence imager (SAGCEREATION, Beijing) on the chemiluminescence channel.

U251 cells [8] = assay: Transwell invasion experiment (Matrigel); assay type: cell-based; conditions: U251, C5 2.5, 5, 10 µM, 24 h, dose-dependent
Experimental: Matrigel-coated transwell chambers (24-well; 8-μm pore size, Corning, New York, NY, USA) were used to evaluate the invasion capability of GBM cells. The U251 cells incubated with different doses of C5 (0, 2.5, 5, and 10 μM) for 24 h were seeded on Matrigel-coated transwell chambers at the density of 2 × 10^4/well in a serum-free medium. After culturing for 24 h, the cells that invaded through Matrigel to the lower surface of the membrane were fixed with […] and stained with 0.1% crystal violet. The cells were counted under an inverted microscope in at least 5 random fields per well.

[9] = tested on: U251 multicellular tumour spheroids; assay: 3D spheroid assay (MCTSs, calcein-AM/PI); assay type: cell-based; conditions: C5 24 h, dose-dependent
Experimental: Malignant glioblastoma tumour cells U251 were seeded in cell-repellent 96-well U-bottom plates (Sbio™), and cultured for 72 h to allow spheroid formation. […] Spheroids were stained with PI and Calcein-AM, and observed under a fluorescence microscope.

U251 cells [10] = assay: Mitochondrial membrane potential (JC-1); assay type: cell-based; conditions: U251, C5 2.5, 5, 10 μM, 24 h
Experimental: U251 cells were seeded in 6-well microplates at the density of 1.5 × 10^5 cells/well and cultured overnight. Fresh medium containing different doses of C5 (0, 2.5, 5, and 10 μM) was added, and the cells were cultured for 24 h. The cells were stained using the JC-1 kit (Sigma-Aldrich, USA) according to the manufacturer’s instructions and observed by fluorescence microscopy. The changes in the ratio of the red and green fluorescence intensities were calculated to evaluate MMP.

[11] = U251, C5 treatment 24 h, concentration-dependent

CDK2 stability to pronase digestion (DARTS) (CDK2 [1]): enhanced stability
IC50 [2]: 3.12 to 4.25 µM and < 5 µM
thermal stability of CDK2 (CETSA) (CDK2 [4]): substantially increased
IC50 (U87): 3.98 ± 0.34 µM
IC50 (U251): 3.12 ± 0.45 µM
Structure (SMILES): CN1C(=O)C(=Cc2ccc(O)cc2)SC1=NN=CC1=CCC2CC1C2(C)C (stereo not shown) [C5, 2-(((6,6-Dimethylbicyclo[3.1.1]hept-2-en-2-yl)methylene)hydrazineylidene)-5–(4-hydroxybenzylidene)-3-methylthiazolidin-4-one]
IC50 (LO2): 43.2 ± 0.21 µM
IC50 (T98G): 4.25 ± 0.38 µM
apoptosis rate (U251 cells [3]): 48.56%
cell cycle distribution (U251 cells [5]): decrease in the G2/M population, with a concomitant increase in the S phase population
intracellular ROS levels (U251 cells [6]): significantly increased
Bax expression ([7]; U251, C5 treatment 24 h): upregulation
Bcl-2 expression ([7]; U251, C5 treatment 24 h): dose-dependent downregulation
PARP cleavage [7, 11]: enhanced
caspase-3 activation [7, 11]: enhanced
LC3B-II expression ([7]; U251, C5 treatment): significantly enhanced
P62 expression ([7]; U251, C5 treatment): significantly enhanced
number of viable cells that invaded through the Matrigel (U251 cells [8]): significantly decreased
viability of U251 cells in a 3D model [9]: decreased
mitochondrial membrane potential, JC-1 fluorescence (U251 cells [10]): dose-dependent decrease in red fluorescence
